In patent US20240360091A1, “GLUN2B-SUBUNIT SELECTIVE ANTAGONISTS OF THE N-METHYL-D-ASPARTATE RECEPTORS WITH ENHANCED POTENCY AT ACIDIC PH” (Emory University, priority 2021, published 2024):

Assays:
in vivo = conditions: BALB/c, mouse, plasma
Experimental: Formulation for pharmacokinetic studies used 2% or 10% N′,N′-dimethylacetamide, 10% propylene glycol, and 30% 2-hydroxypropyl-beta-cyclodextrin in water and a dose volume of 10 mL/kg (all routes of administration).
Briefly, mice were administered a 2 mg/kg or a 5 mg/kg dose (n=3 each) by IP injection (10 mL/kg dose volume) and blood samples collected at 0.08, 0.25, 0.5, 1, 2, 4, 8 and 24 hours post dose in tubes containing sodium heparin on ice. 100 μL of plasma was combined with 50 μL of internal standard (haloperidol, 10 μg/mL) and tubes were then spun at 4000 g for 10 min (4° C.) and plasma transferred to clean tubes and stored at −80° C. until analysis.
Blood samples were collected on ice in sodium heparin tubes at 0.08, 0.25, 0.5, 1, 2, 4, 8, and 24 hours post dose. Samples were prepared and analyzed as described above except here the internal standard was fluconazole (10 μg/mL).

[1] = Plasma protein binding, rapid equilibrium dialysis, dog; format: in vitro ADME; conditions: n=1
Experimental: Plasma protein binding was performed with a rapid equilibrium dialysis (RED) device containing dialysis membrane with a molecular weight cut-off of 8,000 Daltons according to the manufacturer's instructions (ThermoFisher, USA). The plasma samples (pH 7.4) and the test compound solution (1 or 5 μM) or reference standards (Warfarin and Propranolol, 10 μM) were combined (DMSO final conc 0.1%). 300 μL of this spiked plasma sample was added to the sample chamber, and 500 μL of blank PBS buffer (pH 7.4) was added into the buffer chamber. The RED device was sealed with adhesive film and then incubated at 37° C. with shaking at 300 rpm for 4 h. Following incubation, an aliquot (50 μL) was removed from each well (spiked plasma and buffer side) and diluted with equal volume of the corresponding opposite matrix (blank buffer or blank plasma) to nullify the matrix effect, and then extracted for analysis by LC-MS/MS. The amount of free material was determined by:
% Free=(LC-MS/MS peak area of test compound in buffer side/LC-MS/MS peak area of test compound in plasma side)×100%

5-HT2A = 5-HT2A (Homo sapiens (Human), UniProt P28223); assay: Functional agonism/antagonism, IP1 HTRF in HEK293 cells; format: cell-based
Chain of 5-HT2A (P28223 whole entry): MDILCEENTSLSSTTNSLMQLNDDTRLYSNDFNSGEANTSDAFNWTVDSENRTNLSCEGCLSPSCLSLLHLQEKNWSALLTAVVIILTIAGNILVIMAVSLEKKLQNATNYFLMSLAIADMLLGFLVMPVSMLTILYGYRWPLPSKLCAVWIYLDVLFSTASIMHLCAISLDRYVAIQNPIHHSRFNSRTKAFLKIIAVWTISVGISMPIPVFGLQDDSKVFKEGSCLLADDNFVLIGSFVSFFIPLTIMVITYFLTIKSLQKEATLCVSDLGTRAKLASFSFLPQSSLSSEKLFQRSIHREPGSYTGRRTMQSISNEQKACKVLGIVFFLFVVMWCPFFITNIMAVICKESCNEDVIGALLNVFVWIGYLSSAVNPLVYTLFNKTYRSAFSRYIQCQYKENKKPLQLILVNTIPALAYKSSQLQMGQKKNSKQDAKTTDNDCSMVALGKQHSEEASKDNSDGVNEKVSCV
Experimental: These receptor targets include the 5-HT2A receptor, the functional study of which was performed at pH 7.4 (Porter, et al., Br J Pharmacol, 1999, 128:13-20; CEREP, France). […] Separate wells stimulated with 10 μM serotonin served as a positive control. […] The cells were stimulated with 100 nM serotonin.

AUC(0-t) (in vivo; iv, 3 mg/kg): 17800 ng·h/mL
Cmax (in vivo; iv, 3 mg/kg): 2350 ng/mL
Tmax (in vivo; iv, 3 mg/kg): 0.08 h
Vd (in vivo; iv, 3 mg/kg): 1.59 L/kg
clearance (in vivo; iv, 3 mg/kg): 2.44 mL/min/kg
half-life (in vivo; iv, 3 mg/kg): 8.56 h
bioavailability (in vivo; oral, 10 mg/kg): 75.7%
AUC(0-inf) (in vivo; po, 10 mg/kg): 49500 ng·h/mL
AUC(0-t) (in vivo; po, 10 mg/kg): 45000 ng·h/mL
Cmax (in vivo; po, 10 mg/kg): 3600 ng/mL
Tmax (in vivo; po, 10 mg/kg): 1 h
half-life (in vivo; po, 10 mg/kg): 7.06 h
AUC(0-inf) (in vivo; male, ip, 2 mg/kg): 5690 ng·h/mL
AUC(0-t) (in vivo; male, ip, 2 mg/kg): 4750 ng·h/mL
Cmax (in vivo; male, ip, 2 mg/kg): 581 ng/mL
Tmax (in vivo; male, ip, 2 mg/kg): 0.5 h
half-life (in vivo; male, ip, 2 mg/kg): 9.9 h
AUC(0-inf) (in vivo; male, ip, 5 mg/kg): 13100 ng·h/mL
AUC(0-t) (in vivo; male, ip, 5 mg/kg): 11800 ng·h/mL
Cmax (in vivo; male, ip, 5 mg/kg): 1430 ng/mL
Tmax (in vivo; male, ip, 5 mg/kg): 0.5 h
half-life (in vivo; male, ip, 5 mg/kg): 7.5 to 9.9 h
bound to dog plasma proteins [1]: 98.2%
functional agonism or antagonism at 5-HT2A (5-HT2A; pH 7.4): behaved as an antagonist
IC50 (5-HT2A; pH 7.4, antagonism vs 100 nM serotonin): 1.71 µM
SMILES: O=C1CCc2cc(OC[C@H](O)CN3CCN(c4ccc(C(F)(F)F)cc4)CC3)ccc2N1 [NP10679]
